Assay results published in patent US20250270224A1, “POLYCYCLIC POLY(ADP-RIBOSE) POLYMERASE SELECTIVE INHIBITOR” (XUANZHU BIOPHARMACEUTICAL CO., LTD., priority 2022, published 2025).

Key:
MDA-MB-436 cells = assay: In-vitro cytological inhibitory activity (CelltiterGlo assay), 7 days culture; assay type: cell-based; conditions: BRCA1 mutated human breast cancer cells, CTG
Experimental: The MDA-MB-436 cells were adherent cells, and the culture solution was DMEM+10% FBS+1% ITS-G+16 μg/ml glutathione.
Cells in the logarithmic growth phase were collected and counted by a […]. The cell viability was detected by a trypan blue exclusion method, and the cell viability was kept over 90%. The cell concentration was adjusted to be in a proper range, and 90 μL of cell suspension was added into a 96-well plate respectively.
The stock solutions of the test compounds were diluted by 10 times from 10 mM to 1 mM with DMSO, and then continuously gradiently diluted by 3 times with DMSO into a total of 9 concentrations.
10 μL of compound working stock solution was added into each well in a 96-well plate inoculated with cells (diluted by 10 times, the final concentration of DMSO was 0.1%).
Solvent control: 0.1% DMSO (2 μL of DMSO was diluted with 198 μL of culture solution, and then 10 μL of the diluted solution was added into the well plate).
Blank control: the 96-well plate was detected and read 0 hour after the addition.
2.5 the 96-Well Plate was Placed in a 5% CO2 Cell Incubator at 37° C. To Culture for 7 Days
A CTG reagent was thawed and the 96-well plate was equilibrated to room temperature for 30 minutes, 60 μL of reagent (Celltiter Glo assay kit) was added into each well and shaken by a shaker for 2 minutes to mix uniformly (in the dark), and the mixture was incubated at room temperature for 20 minutes (in the dark). Light signal values were read by a multi-functional microplate reader.

PARP1 = PARP1 (Homo sapiens (Human), UniProt P09874); assay: In-vitro enzymatic activity, PARP1 (histone-coated plate, chemiluminescence detection); assay type: biochemical; conditions: class symbols
Sequence of PARP1 (P09874 whole entry): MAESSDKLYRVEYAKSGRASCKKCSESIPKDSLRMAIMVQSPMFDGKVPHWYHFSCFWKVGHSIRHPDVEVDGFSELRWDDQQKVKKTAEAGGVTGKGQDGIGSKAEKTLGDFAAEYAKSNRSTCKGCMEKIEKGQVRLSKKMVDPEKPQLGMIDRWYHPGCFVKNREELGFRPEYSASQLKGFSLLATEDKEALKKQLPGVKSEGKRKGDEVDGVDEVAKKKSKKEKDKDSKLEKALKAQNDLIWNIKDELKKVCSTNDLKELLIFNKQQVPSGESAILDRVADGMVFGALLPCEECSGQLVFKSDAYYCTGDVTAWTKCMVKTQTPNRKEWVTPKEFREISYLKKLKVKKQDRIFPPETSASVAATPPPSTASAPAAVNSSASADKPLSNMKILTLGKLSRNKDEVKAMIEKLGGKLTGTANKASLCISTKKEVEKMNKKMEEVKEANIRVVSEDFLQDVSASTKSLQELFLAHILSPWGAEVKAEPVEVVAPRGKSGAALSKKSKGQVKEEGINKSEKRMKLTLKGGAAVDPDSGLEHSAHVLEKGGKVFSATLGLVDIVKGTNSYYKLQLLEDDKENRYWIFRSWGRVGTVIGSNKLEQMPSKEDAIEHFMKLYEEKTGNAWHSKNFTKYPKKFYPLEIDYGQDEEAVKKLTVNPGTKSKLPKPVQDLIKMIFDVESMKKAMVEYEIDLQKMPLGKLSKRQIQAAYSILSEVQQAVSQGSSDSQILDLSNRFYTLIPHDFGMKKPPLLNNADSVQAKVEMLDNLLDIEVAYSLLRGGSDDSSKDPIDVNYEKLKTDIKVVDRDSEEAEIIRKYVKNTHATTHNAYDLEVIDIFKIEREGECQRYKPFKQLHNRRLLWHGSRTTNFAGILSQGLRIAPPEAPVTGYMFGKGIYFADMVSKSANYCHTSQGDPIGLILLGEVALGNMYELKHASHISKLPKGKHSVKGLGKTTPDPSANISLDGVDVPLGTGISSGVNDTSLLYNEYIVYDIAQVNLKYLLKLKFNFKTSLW

PARP2 = PARP2 (Homo sapiens (Human), UniProt Q9UGN5); assay: In-vitro enzymatic activity, PARP2 (histone-coated plate, chemiluminescence detection); assay type: biochemical; conditions: class symbols
Sequence of PARP2 (Q9UGN5 whole entry): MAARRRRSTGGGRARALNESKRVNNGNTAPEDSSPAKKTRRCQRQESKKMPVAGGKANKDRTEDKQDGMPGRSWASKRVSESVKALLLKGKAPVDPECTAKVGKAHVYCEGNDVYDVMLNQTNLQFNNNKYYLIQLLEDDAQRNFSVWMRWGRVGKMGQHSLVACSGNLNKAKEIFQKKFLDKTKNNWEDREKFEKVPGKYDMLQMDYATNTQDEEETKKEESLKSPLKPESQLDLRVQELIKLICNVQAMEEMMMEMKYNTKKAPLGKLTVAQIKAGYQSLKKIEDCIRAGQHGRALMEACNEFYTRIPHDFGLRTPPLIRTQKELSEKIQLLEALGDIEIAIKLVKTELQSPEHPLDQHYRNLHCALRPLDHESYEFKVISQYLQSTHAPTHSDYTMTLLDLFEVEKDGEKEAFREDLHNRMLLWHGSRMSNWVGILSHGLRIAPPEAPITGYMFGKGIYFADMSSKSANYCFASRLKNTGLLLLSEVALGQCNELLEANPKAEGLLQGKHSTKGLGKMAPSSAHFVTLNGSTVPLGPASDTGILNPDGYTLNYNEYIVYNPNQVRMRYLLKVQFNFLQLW

Molecule `CNC(=O)c1ccc(N2CCN(Cc3cc4c5c(c(C)c(=O)[nH]c5c3)CCC4)CC2)c(F)n1` [Compound 25, 6-fluoro-N-methyl-5-(4-((3-methyl-2-oxo-2,4,5,6-tetrahydro-1H-benzo[de]quinoline-8-yl)methyl)piperazine-1-yl)picolinamide] has an IC50 (MDA-MB-436 cells; MDA-MB-436, 168 h) of 0.0158 µM, an IC50 (PARP1) of less than 0.001 µM and an IC50 (PARP2) of 0.01 to 0.1 µM.

“(S)-6-fluoro-5-(4-((9-fluoro-3-methyl-2-oxo-2,3-dihydro-1H-pyrrolo[1,2,3-de]quinoxaline-8-yl) methyl)piperazine-1-yl)-N-methylpyridine formamide [Compound 35]” showed an IC50 (MDA-MB-436 cells) of 0.0465 µM.

Molecule `CNC(=O)c1ccc(N2CCN(Cc3cc4cc(C)n5c4c(c3F)NC(=O)C5C)CC2)c(F)n1` (centres unmarked) [Compound 34, 6-fluoro-5-(4-((9-fluoro-3,5-dimethyl-2-oxo-2,3-dihydro-1H-pyrrolo[1,2,3-de]quinoxaline-8-yl)methyl)piperazine-1-yl)-N-methylpyridine formamide] has an IC50 (MDA-MB-436 cells; MDA-MB-436, 168 h) of 0.0136 µM, an IC50 (PARP1) of 0.001 to 0.003 µM and an IC50 (PARP2) of 0.1 to 1 µM.

In the case of `CNC(=O)c1ccc(N2CCN(Cc3cc4c5c(c3)c(F)nn5[C@@H](C)C(=O)N4)CC2)c(F)n1` [Compound 49-1, (S)-6-fluoro-5-(4-((6-fluoro-3-methyl-2-oxo-2,3-dihydro-1H-pyrazolo[1,5,4-de]quinoxaline-8-yl)methyl)piperazine-1-yl)-N-methylpicolinamide], the IC50 (MDA-MB-436 cells; MDA-MB-436, 168 h) is reported as 0.0036 µM, the IC50 (PARP1) is reported as 0.001 to 0.003 µM and the IC50 (PARP2) is reported as 0.1 to 1 µM.

`CNC(=O)c1ccc(N2CCN(Cc3cc4c5c(c3)c(F)nn5[C@H](C)C(=O)N4)CC2)c(F)n1` [Compound 49-2, (R)-6-fluoro-5-(4-((6-fluoro-3-methyl-2-oxo-2,3-dihydro-1H-pyrazolo[1,5,4-de]quinoxaline-8-yl)methyl)piperazine-1-yl)-N-methylpicolinamide] gave an IC50 (MDA-MB-436 cells; MDA-MB-436, 168 h) of 0.0029 µM, an IC50 (PARP1) of less than 0.001 µM and an IC50 (PARP2) of 0.1 to 1 µM.

For `CNC(=O)c1ccc(N2CCN(Cc3cc4c5c(c(C)c(=O)[nH]c5c3F)CC4)CC2)c(F)n1` [Compound 6, 6-fluoro-5-(4-((8-fluoro-3-methyl-2-oxo-1,2,4,5-tetrahydrocyclopentyl[de]quinoline-7-yl)methyl)piperazine-1-yl)-N-methylpicolinamide], the IC50 (MDA-MB-436 cells) was 0.002 µM.

In the case of `CNC(=O)c1ccc(N2CCN(Cc3cc4ccn5c4c(c3F)NC(=O)[C@H]5C)CC2)c(F)n1` [Compound 36, (R)-6-fluoro-5-(4-((9-fluoro-3-methyl-2-oxo-2,3-dihydro-1H-pyrrolo[1,2,3-de]quinoxaline-8-yl)methyl)piperazine-1-yl)-N-methylpyridine formamide], the IC50 (MDA-MB-436 cells; MDA-MB-436, 168 h) is reported as 0.0111 µM.

“5-(4-((6,9-difluoro-3-methyl-2-oxo-2,3-dihydro-1H-pyrrolo[1,2,3-de]quinoxaline-8-yl)methyl)piperazine-1-yl)-6-fluoro-N-methylpyridine Formamide [Compound 38]” gave an IC50 (MDA-MB-436 cells) of 0.0152 µM, an IC50 (PARP1) of 0.001 to 0.003 µM and an IC50 (PARP2) of 0.1 to 1 µM.

Molecule `CNC(=O)c1ccc(N2CCN(Cc3cc4c5c(c(C)c(=O)[nH]c5c3)CC4)CC2)c(F)n1` [Compound 31, 6-fluoro-N-methyl-5-(4-((3-methyl-2-oxo-1,2,4,5-tetrahydrocyclopentane[de]quinoline-7-yl)methyl)piperazine-1-yl)pyridine carboxamide] has an IC50 (MDA-MB-436 cells) of 0.0022 µM, an IC50 (PARP1) of less than 0.001 µM and an IC50 (PARP2) of 0.01 to 0.1 µM.

`CNC(=O)c1ccc(N2CCN(Cc3cc4c5c(ccn5CC(=O)N4)c3)CC2)c(F)n1` [Compound 11, 6-fluoro-N-methyl-5-(4-((2-oxo-2,3-dihydro-1H-pyrrolo[1,2,3-de]quinoxaline-8-yl)methyl)piperazine-1-yl)picolinamide] showed an IC50 (MDA-MB-436 cells; MDA-MB-436, 168 h) of 0.0215 µM.

`CNC(=O)c1ccc(N2CCN(Cc3cc4c5c(cnn5CC(=O)N4)c3)CC2)c(F)n1` [Compound 8, 6-fluoro-N-methyl-5-(4-((2-oxo-2,3-dihydro-1H-pyrazolo[1,5,4-de]quinoxaline-8-yl)methyl)piperazine-1-yl)picolinamide] showed an IC50 (MDA-MB-436 cells; MDA-MB-436, 168 h) of 0.129 µM.

In the case of `CNC(=O)c1ccc(N2CCN(Cc3cc4c5c(ccn5C(C)(C)C(=O)N4)c3)CC2)c(F)n1` [Compound 46, 5-(4-((3,3-dimethyl-2-oxo-2,3-dihydro-1H-pyrrolo[1,2,3-de]quinoxaline-8-yl)methyl)piperazine-1-yl)-6-fluoro-N-methylpicolinamide], the IC50 (MDA-MB-436 cells; MDA-MB-436, 168 h) is reported as 0.0092 µM, the IC50 (PARP1) is reported as 0.003 to 0.01 µM and the IC50 (PARP2) is reported as 0.1 to 1 µM.
